Laboratory results as given in patent US10065990B2, “Cyclic peptide compound, and preparation method, pharmaceutical composition and use thereof” (HANGZHOU GUANYU BIO-MEDICAL CO., LTD, priority 2013, dated 2018).
Where two headings read alike, the source gives them in different places.

Columns and labels:
HDAC7 = target: T1, HDAC7 (Homo sapiens, UniProt Q8WUI4); assay: HDAC biochemical activity measurement (fluorescent substrate deacetylation);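 for all read-outs here: fluorogenic deacetylation assay using acetyl-lysine substrate at 20 µM, enzyme and compound incubated 30 min at 37 °C, then developer added, fluorescence read at 360/460 nm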; settings: for IC50 HDAC7: 37° C. 30 minutes
T1 sequence (Q8WUI4 1-952): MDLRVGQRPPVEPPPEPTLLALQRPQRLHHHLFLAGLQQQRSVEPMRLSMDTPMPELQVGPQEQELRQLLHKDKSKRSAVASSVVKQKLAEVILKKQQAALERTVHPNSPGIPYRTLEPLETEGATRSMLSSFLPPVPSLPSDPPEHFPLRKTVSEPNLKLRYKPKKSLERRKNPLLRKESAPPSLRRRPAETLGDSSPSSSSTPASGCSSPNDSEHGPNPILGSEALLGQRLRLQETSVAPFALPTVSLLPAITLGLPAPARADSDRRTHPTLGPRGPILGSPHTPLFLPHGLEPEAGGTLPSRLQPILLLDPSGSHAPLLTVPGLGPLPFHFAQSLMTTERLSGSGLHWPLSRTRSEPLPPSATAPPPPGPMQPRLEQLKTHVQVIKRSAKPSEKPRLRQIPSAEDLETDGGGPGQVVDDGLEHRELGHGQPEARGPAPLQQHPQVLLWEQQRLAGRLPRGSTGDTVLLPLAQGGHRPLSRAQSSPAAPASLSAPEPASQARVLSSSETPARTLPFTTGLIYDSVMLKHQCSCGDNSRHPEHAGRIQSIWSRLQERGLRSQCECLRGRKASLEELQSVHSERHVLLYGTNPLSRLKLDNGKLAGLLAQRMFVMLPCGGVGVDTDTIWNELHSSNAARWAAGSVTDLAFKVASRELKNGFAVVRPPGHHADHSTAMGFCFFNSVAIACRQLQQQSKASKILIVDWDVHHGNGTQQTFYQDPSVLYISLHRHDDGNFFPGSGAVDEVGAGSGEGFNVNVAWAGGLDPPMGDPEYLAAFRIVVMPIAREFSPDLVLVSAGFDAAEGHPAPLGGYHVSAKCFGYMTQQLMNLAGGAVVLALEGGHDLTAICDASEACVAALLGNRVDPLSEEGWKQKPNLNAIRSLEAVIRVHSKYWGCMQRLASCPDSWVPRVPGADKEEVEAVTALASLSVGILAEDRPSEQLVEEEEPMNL

[1] = tested on: A549 (human lung cancer cells); assay: MTT cancer cell growth inhibition; assay type: cell-based; settings: Homo sapiens, A549, 72 h, MTT, 72 hours incubation, read-out: GI50 A54
In short: (§1)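 Absorbance at 570 nm of DMSO-dissolved formazan, formed during a 4 h MTT incubation, served as the viability measure. Cells had been exposed 72 h to drug at 10^−5–10^−10 M final; GI50 was calculated from these readings.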

[2] = tested on: BGC-823 (human gastric cancer cells); assay: MTT cancer cell growth inhibition; assay type: cell-based; settings: Homo sapiens, BGC-823, 72 h, MTT, 72 hours incubation, read-out: GI50 BG
In short: as §1

[3] = tested on: Bel-7402 (human hepatoma cells); assay: MTT cancer cell growth inhibition; assay type: cell-based; settings: Homo sapiens, Bel-7402, 72 h, MTT, 72 hours incubation, Bel-7402 cells; read-out: GI50 Bel-7402
In short: as §1

[4] = tested on: DU145 (human prostate cancer cells); assay: MTT cancer cell growth inhibition; assay type: cell-based; settings: Homo sapiens, DU-145, 72 h, MTT, 72 hours incubation, read-out: GI50 Du1
In short: as §1

[5] = tested on: H1975 (non-small cell lung adenocarcinoma); assay: MTT cancer cell growth inhibition; assay type: cell-based; settings: Homo sapiens, NCI-H1975, 72 h, MTT, 72 hours incubation, H1975 cells; read-out: GI50 H1975
In short: as §1

[6] = tested on: HCC827 (human non-small cell lung cancer cells); assay: MTT cancer cell growth inhibition; assay type: cell-based; settings: Homo sapiens, HCC827, 72 h, MTT, 72 hours incubation, HCC827 cells; read-out: GI50 HCC827
In short: as §1

[7] = tested on: HT1080 (human fibrosarcoma cells); assay: MTT cancer cell growth inhibition; assay type: cell-based; settings: Homo sapiens, HT-1080, 72 h, MTT, 72 hours incubation, read-out: GI50 HT1
In short: as §1

[8] = tested on: Hela (human cervical cancer cells); assay: MTT cancer cell growth inhibition; assay type: cell-based; settings: Homo sapiens, HeLa, 72 h, MTT, 72 hours incubation, read-out: GI50 Hela
In short: as §1

[9] = tested on: Huh-7 (human hepatoma cells); assay: MTT cancer cell growth inhibition; assay type: cell-based; settings: Homo sapiens, Huh-7, 72 h, MTT, 72 hours incubation, Huh-7 cells; read-out: GI50 Huh-7
In short: as §1

[10] = tested on: K562 (human leukemia cells); assay: MTT cancer cell growth inhibition; assay type: cell-based; settings: Homo sapiens, K562, 72 h, MTT, 72 hours incubation, K562 cells; read-out: GI50 K562
In short: as §1

[11] = tested on: KBM-5 (human chronic myelogenous leukemia); assay: MTT cancer cell growth inhibition; assay type: cell-based; settings: Homo sapiens, KBM5, 72 h, MTT, 72 hours incubation, KBM-5 cells; read-out: GI50 KBM-5
In short: as §1

[12] = tested on: KBM5-T315I (human chronic myelogenous leukemia); assay: MTT cancer cell growth inhibition; assay type: cell-based; settings: Homo sapiens, 72 h, MTT, 72 hours incubation, KBM5-T315I cells; read-out: GI50 KBM5-T315I
In short: as §1

[13] = tested on: MCF-7 (human breast cancer cells); assay: MTT cancer cell growth inhibition; assay type: cell-based; settings: Homo sapiens, MCF7, 72 h, 72 hours incubation, read-out: GI50 MCF
In short: as §1

[14] = tested on: MDA-MB-231 (breast cancer cells); assay: MTT cancer cell growth inhibition; assay type: cell-based; settings: Homo sapiens, MDA-MB-231, 72 h, read-out: GI50 MDA-MB-231, MTT, 72 hours incubation, MDA-MB-231 cells
In short: as §1

[15] = tested on: MOLT-4 (human acute lymphoblastic leukemia cells); assay: MTT cancer cell growth inhibition; assay type: cell-based; settings: Homo sapiens, MOLT-4, 72 h, MTT, 72 hours incubation, read-out: GI50 Mol
In short: as §1

[16] = tested on: N-87 (human gastric cancer cells); assay: MTT cancer cell growth inhibition; assay type: cell-based; settings: Homo sapiens, 72 h, MTT, 72 hours incubation, N-87 cells; read-out: GI50 N-87
In short: as §1

[17] = tested on: PANC-1 (Pac-1, human pancreatic cancer cells); assay: MTT cancer cell growth inhibition; assay type: cell-based; settings: Homo sapiens, PANC-1, 72 h, MTT, 72 hours incubation, read-out: GI50 PAN
In short: as §1

[18] = tested on: SGC-7901 (human gastric cancer cells); assay: MTT cancer cell growth inhibition; assay type: cell-based; settings: Homo sapiens, SGC-7901, 72 h, MTT, 72 hours incubation, SGC-7901 cells; read-out: GI50 SGC-7901
In short: as §1

[19] = tested on: U937 (human leukemia cells); assay: MTT cancer cell growth inhibition; assay type: cell-based; settings: Homo sapiens, U-937, 72 h, MTT, 72 hours incubation, read-out: GI50 U93
In short: as §1

[20] = tested on: lncap (prostate cancer cells); assay: MTT cancer cell growth inhibition; assay type: cell-based; settings: Homo sapiens, LNCaP, 72 h, MTT, 72 hours incubation, read-out: GI50 lnca
In short: as §1

SMILES | IC50 HDAC7 (HDAC7) | GI50 [1] [nM] | GI50 [2] [nM] | GI50 [3] [nM] | GI50 [4] [nM] | GI50 [5] [nM] | GI50 [6] [nM] | GI50 [7] [nM] | GI50 [8] [nM] | GI50 [9] [nM] | GI50 [10] [nM] | GI50 [11] [nM] | GI50 [12] [nM] | GI50 [13] [nM] | GI50 [14] [nM] | GI50 [15] [nM] | GI50 [16] [nM] | GI50 [17] [nM] | GI50 [18] [nM] | GI50 [19] [nM] | also measured
C/C=C1\NC(=O)c2ccc(F)c(n2)CNC(=O)C[C@@H](/C=C/CCS)OC(=O)[C@H](CCCCN)NC1=O [Compound 118] | no activity | 30 | 60 | 27 | 40 | 35 | 53 | 80 | 70 | 41 | 29 | 41 | 57 | 60 | 31 | 20 | 61 | 80 | 39 | 30 | GI50 [20]: 20 nM
CC(=O)SCC/C=C/[C@@H]1CC(=O)NCc2ccc(F)c(n2)C(=O)NC(=C(C)C)C(=O)N[C@@H](C(C)C)C(=O)O1 [Compound 87] | no activity | 30 | 20 | 57 | 20 | 42 | 57 | 50 | 80 | 19 | 27 | 82 | 37 | 30 | 19 | 10 | 21 | 50 | 37 | 40 | GI50 [20]: 10 nM
C/C=C1\NC(=O)c2cc(F)cc(n2)CNC(=O)C[C@@H](/C=C/CCS)OC(=O)[C@H](CCCCNC(=O)OCC2c3ccccc3-c3ccccc32)NC1=O [Compound 121] | no activity | 210 | 190 | 26 | 30 | 28 | 42 | 70 | 50 | 45 | 38 | 46 | 23 | 20 | 75 | 30 | 23 | 70 | 33 | 60 | GI50 [20]: 110 nM
C/C=C1\NC(=O)c2cc(SCC)cc(n2)CNC(=O)C[C@@H](/C=C/CCSC(=O)CCCCCC)OC(=O)[C@H](C(C)C)NC1=O [Compound 251] |  |  |  | 42 |  | 63 | 53 |  |  | 55 | 35 | 66 | 81 |  | 38 |  | 36 |  | 49 |  | IC50 (μM) HDAC7 (HDAC7): no activity; GI50 ([1]; A549 cells): 60 nM; GI50 ([2]; BGC-823 cells): 30 nM; GI50 ([4]; DU145 cells): 20 nM; GI50 ([7]; HT1080 cells): 20 nM; GI50 ([8]; Hela cells): 20 nM; GI50 ([13]; MCF-7 cells): 40 nM; GI50 ([15]; MOLT-4 cells): 70 nM; GI50 ([17]; PANC-1 cells): 50 nM; GI50 ([19]; U937 cells): 30 nM; GI50 ([20]; lncap cells): 90 nM
C/C=C1\NC(=O)c2cc(F)cc(n2)CNC(=O)C[C@@H](/C=C/CCSC(C)=O)OC(=O)[C@@H](C)NC1=O [Compound 101] | no activity | 70 | 30 | 45 | 30 | 69 | 39 | 40 | 40 | 36 | 21 | 41 | 36 | 20 | 52 | 20 | 26 | 40 | 48 | 50 | GI50 [20]: 20 nM
C/C=C1\NC(=O)c2nc(ccc2SC)CNC(=O)C[C@@H](/C=C/CCSC(=O)CC)OC(=O)[C@H](C(C)C)NC1=O [Compound 162] | no activity |  |  | 35 |  | 49 | 51 |  |  | 81 | 73 | 42 | 16 |  | 79 |  | 18 |  | 78 |  | GI50 ([1]; A549 cells): 90 nM; GI50 ([2]; BGC-823 cells): 50 nM; GI50 ([4]; DU145 cells): 10 nM; GI50 ([7]; HT1080 cells): 70 nM; GI50 ([8]; Hela cells): 80 nM; GI50 ([13]; MCF-7 cells): 40 nM; GI50 ([15]; MOLT-4 cells): 70 nM; GI50 ([17]; PANC-1 cells): 70 nM; GI50 ([19]; U937 cells): 50 nM; GI50 ([20]; lncap cells): 50 nM
C=C1NC(=O)c2ccc(SC)c(n2)CNC(=O)C[C@@H](/C=C/CCSC(C)=O)OC(=O)[C@H](C)NC1=O [Compound 212] | no activity |  |  | 39 |  | 62 | 48 |  |  | 57 | 35 | 69 | 37 |  | 97 |  | 35 |  | 84 |  | GI50 ([1]; A549 cells): 40 nM; GI50 ([2]; BGC-823 cells): 60 nM; GI50 ([4]; DU145 cells): 30 nM; GI50 ([7]; HT1080 cells): 30 nM; GI50 ([8]; Hela cells): 20 nM; GI50 ([13]; MCF-7 cells): 70 nM; GI50 ([15]; MOLT-4 cells): 70 nM; GI50 ([17]; PANC-1 cells): 50 nM; GI50 ([19]; U937 cells): 60 nM; GI50 ([20]; lncap cells): 80 nM
